How the values were obtained:
human STAT6 = human STAT6 (Homo sapiens (Human), UniProt P42226); experiment: Surface plasmon resonance assay (Biacore 8K, binding to immobilized STAT6); conditions: human STAT6 aa122-658, N-terminal His-tag, CM5 chip, 25° C.; geometric mean; read-out: STAT6 SPR Kd
Outline: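 Run at 25° C with His-tagged STAT6 aa122-658 (insect-cell expressed) amine-coupled to a CM5 chip, reference-subtracted, in PBS-P+ with 2% DMSO. Multi-cycle kinetics: 60 sec. contact, up to 300 sec. dissociation. Affinity fitted from late report-point binding isotherms, with Rmax both free and fixed to theoretical 1:1.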

[1] = tested on: Eotaxin-3 (CCL26) release in human whole blood stimulated with IL-4; experiment: Human whole blood eotaxin-3 assay (IL-4 stimulated, Eotaxin-3 release); type: cell-based; conditions: for Emax: 48 h
Outline: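 Lithium-heparin blood preincubated 2 h at 37° C with 4-fold compound dilutions (0.5% DMSO, triplicates), then stimulated with 400 pM recombinant human IL-4 for 48 h. Eotaxin-3 in plasma supernatant measured by MSD immunoassay.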

Chain of human STAT6 (P42226 122-658): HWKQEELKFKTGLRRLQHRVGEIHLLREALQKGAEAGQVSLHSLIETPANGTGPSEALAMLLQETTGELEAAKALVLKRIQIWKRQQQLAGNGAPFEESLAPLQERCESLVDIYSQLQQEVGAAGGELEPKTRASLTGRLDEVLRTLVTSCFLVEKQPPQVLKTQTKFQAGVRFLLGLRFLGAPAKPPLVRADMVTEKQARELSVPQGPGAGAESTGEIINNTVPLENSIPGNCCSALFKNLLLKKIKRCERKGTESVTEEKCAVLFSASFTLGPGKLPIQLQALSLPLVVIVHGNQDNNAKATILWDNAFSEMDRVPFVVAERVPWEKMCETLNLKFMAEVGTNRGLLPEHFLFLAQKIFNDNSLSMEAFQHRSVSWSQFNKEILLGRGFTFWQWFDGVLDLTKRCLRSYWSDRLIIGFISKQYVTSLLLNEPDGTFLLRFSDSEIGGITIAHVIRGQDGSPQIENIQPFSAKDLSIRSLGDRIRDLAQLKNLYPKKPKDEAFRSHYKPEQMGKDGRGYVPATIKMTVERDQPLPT

| Kd (human STAT6) | EC50 ([1]; Homo sapiens, Hec50, 48 h) | EC50 ([1]; human whole blood, 400 pM recombinant human IL-4, 48 h, EC50 provided for compounds with >80% Emax, geometric mean) | Compound | Emax ([1]; Homo sapiens) |
| --- | --- | --- | --- | --- |
| 329 nM | 76000 nM |  | CNc1ccc(-c2ccnc3c2cc(CN2CCN(c4ccc(C(=O)N(C)C)cc4)CC2)n3C)nn1 [Example 1p1, N,N-Dimethyl-4-[4-[[1-methyl-4-[6-(methylamino)pyridazin-3-yl]pyrrolo[2,3-b]pyridin-2-yl]methyl]piperazin-1-yl]benzamide] |  |
| 31.4 nM | 871 nM |  | CN(C)C(=O)c1ccc(C2CCN(Cc3cc4c(-c5ccc(N)nc5C#N)ccnc4n3C)CC2)cc1 [Example 1k43, 4-[1-[[4-(6-Amino-2-cyano-3-pyridyl)-1-methyl-pyrrolo[2,3-b]pyridin-2-yl]methyl]-4-piperidyl]-N,N-dimethyl-benzamide] |  |
| 12.9 nM | 246 nM |  | C[C@H](c1cc2c(-c3ccc(N)nc3)ccnc2n1C)N1CCC(c2ccc(C(=O)N(C)C)cc2)CC1 [Example 1af12, (R)-4-(1-(1-(4-(6-aminopyridin-3-yl)-1-methyl-1H-pyrrolo[2,3-b]pyridin-2-yl)ethyl)piperidin-4-yl)-N,N-dimethylbenzamide] |  |
| 30.5 nM | 6590 nM |  | Cc1cc(-c2ccnc3c2cc(CN2CCC(c4ccc(C(=O)N(C)C)cc4)CC2)n3C)cnc1N [Example 1k11, 4-[1-[[4-(6-Amino-5-methyl-3-pyridyl)-1-methyl-pyrrolo[2,3-b]pyridin-2-yl]methyl]-4-piperidyl]-N,N-dimethyl-benzamide] |  |
| 16 nM | 104 nM |  | CNc1ccc(-c2ccnc3c2cc(CN2CC=C(c4ccc(C(=O)N(C)C)cc4C)CC2)n3C)[n+]([O-])c1 [Example 1u3, N,N,3-Trimethyl-4-[1-[[1-methyl-4-[5-(methylamino)-1-oxido-pyridin-1-ium-2-yl]pyrrolo[2,3-b]pyridin-2-yl]methyl]-3,6-dihydro-2H-pyridin-4-yl]benzamide] |  |
| 57.4 nM | 651 nM |  | C[C@H]1C[C@@H](c2ccc(C(=O)N(C)C)cc2)CCN1Cc1cc2c(-c3ccc(N)nc3C#N)ccnc2n1C (single isomer, unassigned) [Example 1q5] |  |
| 21.6 nM | 41 nM |  | Cc1cc(C(=O)N(C)C)ccc1C1=CCN([C@H](C)c2cc3c(-c4ccc(N)nc4C#N)ccnc3n2C)CC1 [Example 1af45, (R)-4-(1-(1-(4-(6-amino-2-cyanopyridin-3-yl)-1-methyl-1H-pyrrolo[2,3-b]pyridin-2-yl)ethyl)-1,2,3,6-tetrahydropyridin-4-yl)-N,N,3-trimethylbenzamide] |  |
| 50.3 nM | 7610 nM |  | Cc1nc(-c2ccnc3c2cc(CN2CCC(c4ccc(C(=O)N(C)C)cc4)CC2)n3C)ccc1N [Example 1k73, 4-[1-[[4-(5-Amino-6-methyl-2-pyridyl)-1-methyl-pyrrolo[2,3-b]pyridin-2-yl]methyl]-4-piperidyl]-N,N-dimethyl-benzamide] |  |
| 18.5 nM | 135 nM |  | C[C@H](c1cc2c(-c3ccc(N)nc3C#N)ccnc2n1C)N1CCC(c2ccc(C(=O)N(C)C)cc2)CC1 [Example 1af14, (R)-4-(1-(1-(4-(6-amino-2-cyanopyridin-3-yl)-1-methyl-1H-pyrrolo[2,3-b]pyridin-2-yl)ethyl)piperidin-4-yl)-N,N-dimethylbenzamide] |  |
| 32.1 nM | 4960 nM |  | CNc1ccc(-c2ccnc3c2cc(CN2CC=C(c4ncc(C(=O)N(C)C)cc4C)CC2)n3C)cn1 [Example 1s12, N,N,5-Trimethyl-6-[1-[[1-methyl-4-[6-(methylamino)-3-pyridyl]pyrrolo[2,3-b]pyridin-2-yl]methyl]-3,6-dihydro-2H-pyridin-4-yl]pyridine-3-carboxamide] |  |
| 20.6 nM |  |  | CNc1ccc(-c2ccnc3c2cc(CN2CC[C@H](c4ccc(C(=O)N(C)C)cc4)[C@H](F)C2)n3C)cn1 (stereo in doubt) [Example 1s28, N,N-dimethyl-4-[(3S,4R)-3-fluoro-1-[[1-methyl-4-[6-(methylamino)-3-pyridyl]pyrrolo[2,3-b]pyridin-2-yl]methyl]-4-piperidyl]benzamide] | 76.4% |
| 48.3 nM | 760 nM |  | [2H]C([2H])([2H])N(C(=O)c1ccc(C2=CCN([C@H](C)c3cc4c(-c5ccc(N)cn5)ccnc4n3C)CC2)cc1)C([2H])([2H])[2H] [Example 1af46, (R)-4-(1-(1-(4-(5-amino-pyridin-2-yl)-1-methyl-1H-pyrrolo[2,3-b]pyridin-2-yl)ethyl)-1,2,3,6-tetrahydro-pyridin-4-yl)-N,N-bis(methyl-d3)benzamide] |  |
| 15.7 nM | 404 nM |  | [2H]C([2H])([2H])N(C(=O)c1ccc(C2CCN([C@H](C)c3cc4c(-c5ccc(N)cn5)ccnc4n3C)CC2)cc1)C([2H])([2H])[2H] [Example 1af36, (R)-4-(1-(1-(4-(5-aminopyridin-2-yl)-1-methyl-1H-pyrrolo[2,3-b]pyridin-2-yl)ethyl)piperidin-4-yl)-N,N-bis(methyl-d3)benzamide] |  |
| 39.9 nM |  |  | CC(=O)Nc1ccc(-c2ccnc3c2cc(CN2CC[C@@H](c4ccc(C(=O)N(C)C)cc4)[C@@H](F)C2)n3C)cc1 [Example 1r6, N,N-dimethyl-4-[(3R,4S)-1-[[4-(4-acetamidophenyl)-1-methyl-pyrrolo[2,3-b]pyridin-2-yl]methyl]-3-fluoro-4-piperidyl]benzamide] | 51.2% |
| 28.8 nM | 480 nM |  | CNc1ccc(-c2ccnc3c2cc(CN2CCC(c4c(C)cc(C(=O)N(C)C)cc4C)CC2)n3C)cn1 [Example 1s13, N,N,3,5-Tetramethyl-4-[1-[[1-methyl-4-[6-(methylamino)-3-pyridyl]pyrrolo[2,3-b]pyridin-2-yl]methyl]-4-piperidyl]benzamide] |  |
| 352 nM | 15900 nM |  | Cc1cc(C(=O)N(C)C)ccc1C1=CCN([C@@H](C)c2cc3c(-c4ccc(N)nc4C#N)ccnc3n2C)CC1 [Example 1af44, (S)-4-(1-(1-(4-(6-Amino-2-cyanopyridin-3-yl)-1-methyl-1H-pyrrolo[2,3-b]-pyridin-2-yl)ethyl)-1,2,3,6-tetrahydropyridin-4-yl)-N,N,3-trimethylbenzamide] |  |
| 30.6 nM | 2460 nM |  | CNc1ccc(-c2ccnc3c2cc(CN2CCC(c4ccc(C(=O)N(C)C)cc4F)CC2)n3C)nc1 [Example 1o23, 3-Fluoro-N,N-dimethyl-4-[1-[[1-methyl-4-[5-(methylamino)-2-pyridyl]pyrrolo[2,3-b]pyridin-2-yl]methyl]-4-piperidyl]benzamide] |  |
| 87.7 nM | 14200 nM |  | CN(C)C(=O)c1ccc(C2CCN(Cc3cc4c(-c5cnc(N)nc5)ccnc4n3C)CC2)cc1 [Example 1k13, 4-[1-[[4-(2-Aminopyrimidin-5-yl)-1-methyl-pyrrolo[2,3-b]pyridin-2-yl]methyl]-4-piperidyl]-N,N-dimethyl-benzamide] |  |
| 57.7 nM | 699 nM |  | [2H]C([2H])([2H])N(C(=O)c1ccc(C2CCN([C@@H](C)c3cc4c(-c5ccc(N)nc5C#N)ccnc4n3C)CC2)c(C)c1)C([2H])([2H])[2H] [Example 1af37, (S)-4-(1-(1-(4-(6-Amino-2-cyanopyridin-3-yl)-1-methyl-1H-pyrrolo[2,3-b]pyridin-2-yl)ethyl)piperidin-4-yl)-3-methyl-N,N-bis(methyl-d3)benzamide] |  |
| 80.5 nM |  |  | CNc1cc(C)c(-c2ccnc3c2cc(CN2CCC(c4ccc(C(=O)N(C)C)cc4)CC2)n3C)cn1 [Example 1k51, N,N-Dimethyl-4-[1-[[1-methyl-4-[4-methyl-6-(methylamino)-3-pyridyl]pyrrolo[2,3-b]pyridin-2-yl]methyl]-4-piperidyl]benzamide] | 43% |
| 47.4 nM | 3080 nM |  | C[C@H]1C[C@@H](c2ccc(C(=O)N(C)C)cc2)CCN1Cc1cc2c(-c3ccc(N)cn3)ccnc2n1C (single isomer, unassigned) [Example 1q6] |  |
| 19.2 nM | 232 nM |  | CNc1ccc(-c2ccnc3c2cc(CN2CCN(c4ccc(C(=O)N(C)C)cc4C)CC2)n3C)nn1 [Example 1p3, N,N,3-Trimethyl-4-[4-[[1-methyl-4-[6-(methylamino)pyridazin-3-yl]pyrrolo[2,3-b]pyridin-2-yl]methyl]piperazin-1-yl]benzamide] |  |
| 44.9 nM | 328 nM |  | CNc1ccc(-c2ccnc3c2cc(CN2CCC(c4ccc(C(=O)N(C)C)cc4)CC2)n3C)[n+]([O-])c1 [Example 1u2, N,N-Dimethyl-4-[1-[[1-methyl-4-[5-(methylamino)-1-oxido-pyridin-1-ium-2-yl]pyrrolo[2,3-b]pyridin-2-yl]methyl]-4-piperidyl]benzamide] |  |
| 16 nM |  | 7160 nM | N,N-Dimethyl-4-[1-[[1-methyl-4-[6-(methylamino)-3-pyridyl]pyrrolo[2,3-b]pyridin-2-yl]methyl]-4-piperidyl]benzamide [Example 1k37] |  |
| 14.6 nM | 369 nM |  | CNc1ccc(-c2ccnc3c2cc([C@@H](C)N2CCC(c4ccc(C(=O)N(C)C)cc4)CC2)n3C)cn1 (single isomer, unassigned) [Example 1af8] |  |
| 22 nM | 723 nM |  | CNc1ccc(-c2ccnc3c2cc(CN2CC=C(c4ccc(C(=O)N(C)C)cc4C)CC2)n3C)nn1 [Example 1p6, N,N,3-Trimethyl-4-[1-[[1-methyl-4-[6-(methylamino)pyridazin-3-yl]pyrrolo[2,3-b]pyridin-2-yl]methyl]-3,6-dihydro-2H-pyridin-4-yl]benzamide] |  |
| 53.5 nM |  |  | CNc1ccc(-c2ccnc3c2cc(CN2CCC(c4ccc(C(=O)N(C)C)cc4)CC2)n3C)nc1 [Example 1k69, N,N-Dimethyl-4-(1-((1-methyl-4-(5-(methylamino)pyridin-2-yl)-1H-pyrrolo[2,3-b]pyridin-2-yl)methyl)piperidin-4-yl)benzamide] | 72% |

From patent US20250340551A1, “SMALL MOLECULE MODULATORS OF STAT6” (Gilead Sciences, Inc., priority 2024, published 2025)
